What was measured:
Assay type in all cases: cell-based, human
p38 = test: Expression and phosphorylation of p38 in HaCaT cells (Western blot); settings: 10 μM all-trans retinol, 48 hours, FIG. 3
Procedure: Referring to FIG. 1, altered signaling pathways in the retinol-treated HaCaT cells were investigated. The HaCaT cells were harvested 48 hours after treatment of retinol and c-PDRN at the indicated concentrations, and expression and phosphorylation levels of inflammation-related signaling mediator, p38 were determined using Western blot. Antibodies against p38 or phosphorylated p38 (p-p38) were purchased from Cell Signaling Technology (Danvers, Mass.). The expression and phosphorylation levels of inflammation-related signaling mediator, p38 were evaluated after treatment with 10 μM all-trans retinol and c-PDRN at the indicated concentrations using Western blot to study p38 signaling pathway.

IL-8 = test: Retinol-induced IL-8 release in HaCaT cells (ELISA); settings: 10 μM all-trans retinol, 48 hours
Procedure: (§1) Referring to FIG. 1, immortalized human keratinocytes HaCaT cells were cultured in 96-well plates and treated with 10 μM of all-trans retinol (Sigma-Aldrich, St. Louis, Mo.) and c-PDRN® obtained from (PharmaResearch, Seongnam-si, Gyeonggi-do, Korea) at the indicated concentrations. […] The levels of secreted cytokine were normalized against a standard dose-response curve. c-PDRN is a hydrolyzed DNA fragment mixture extracted from the testes of adult salmon (Oncorhynchus keta, Salmonidae) The inhibitory effects of c-PDRN were evaluated on retinol-induced secretion of MCP-1 or IL-8 in cultured human keratinocytes, HaCaT cells by enzyme-linked immunosorbent assay (ELISA) to study IL-8, MCP-1 signaling pathway. The cultured HaCaT cells were treated with 10 μM all-trans retinol prior to c-PDRN treatment at the indicated concentrations. After incubation for 48 hours, the levels of secreted IL-8 or MCP-1 were measured and normalized against a standard IL-8 or MCP-1 dose-response curve. Data were shown as the means of three individual experiments with five wells per group. All-trans retinol induced increases in IL-8 and MCP-1 secretion by 8-fold and 1.4-fold, respectively. Efficacy range was c-PDRN 10 ppm ˜100 ppm or 0.001%-0.01%.

MCP-1 = test: Retinol-induced MCP-1 release in HaCaT cells (ELISA); settings: 10 μM all-trans retinol, 48 hours
Procedure: as §1

With `CC1=C(/C=C/C(C)=C/C=C/C(C)=C/CO)C(C)(C)CCC1` [All-trans retinol, all-trans retinol] the “phosphorylation of p38 protein induced” value (p38) was 1.6 fold, the “increase in IL-8 secretion” value (IL-8) was 8 fold and the “increase in MCP-1 secretion” value (MCP-1) was 1.4 fold.

— patent US20230140298A1, “TOPICAL COMPOSITION COMPRISING RETINOL AND PDRN AND USE OF SAME” (DR. J SKINCLINIC, INC., priority 2021, published 2023)
